{
  "source": "PubChem BioAssay AID1996",
  "data": [
    {"conditions": "buffer; pH 7.4; 200.0 µM", "units": {"solubility kinetic": "µg/mL"}, "values": [
      {"smiles": "CCOC(=O)C1=C(C)NC(SC)=C(C#N)C1CC(C)C", "note": "(stereo not given)", "solubility kinetic": 2.3},
      {"smiles": "CCOC(=O)c1ccc(NC(=S)NCCCn2ccnc2)cc1", "solubility kinetic": "> 49.9"},
      {"smiles": "O=C(COC(=O)CNC(=O)C1CCCCC1)Nc1cccc(F)c1", "solubility kinetic": "> 50.5"},
      {"smiles": "COc1ccc2cc(C3(C)NC(=O)N(CC(=O)N4CCCCC4)C3=O)ccc2c1", "note": "(stereo not given)", "solubility kinetic": 14.6},
      {"smiles": "N#CCOc1ccccc1/C=C/c1nc2ccccc2c(=O)[nH]1", "solubility kinetic": 5},
      {"smiles": "O=C(NCc1ccco1)C(=S)N1CCCC1", "solubility kinetic": "> 35.7"},
      {"smiles": "C#CCn1cc(/C=C2\\NC(=O)NC2=O)c2ccccc21", "solubility kinetic": 1.2},
      {"smiles": "O=C(COC(=O)c1cc(=O)[nH]c2ccccc12)NCCc1ccccc1", "solubility kinetic": 21.1},
      {"smiles": "C=CCn1c(N)cc(=O)nc1SCC(=O)Nc1ccc(C)cc1", "solubility kinetic": 14.8},
      {"smiles": "CC(=O)Nc1ccc(NC(=O)c2cccc3ccccc23)cc1", "solubility kinetic": 1.7},
      {"smiles": "CCNC(=O)C12CCC(C)(C(=O)O1)C2(C)C", "note": "(stereo not given)", "solubility kinetic": 31.8},
      {"smiles": "OC(COc1ccc(Cl)cc1)CSc1ccccn1", "note": "(stereo not given)", "solubility kinetic": 37.5},
      {"smiles": "CC(Oc1ccc(C#N)cc1)C(=O)NC1CCCC1", "note": "(stereo not given)", "solubility kinetic": "> 38.7"},
      {"smiles": "Cc1cccc(NP(=O)(Oc2ccccc2)Oc2ccccc2)c1C", "solubility kinetic": "< 0.8"},
      {"smiles": "COCCOC(=O)C1=C(C)NC2(O)c3ccccc3C(=O)C12O", "note": "(stereo not given)", "solubility kinetic": "> 47.9"},
      {"smiles": "CC1CCC2(CC1)NC(=O)N(CC(=O)NCc1ccc(Cl)cc1)C2=O", "note": "(stereo not given)", "solubility kinetic": 6.3},
      {"smiles": "O=C(COC(=O)c1cc(=O)c2ccccc2o1)NCC1CCCCC1", "solubility kinetic": 33},
      {"smiles": "COC(=O)C1C(=O)c2c(C)noc2CC1(C)C", "note": "(stereo not given)", "solubility kinetic": "> 35.6"},
      {"smiles": "O=C1OC2(O)C3C4C=CC(C4)C3C(=O)N2c2ccccc21", "note": "(stereo not given)", "solubility kinetic": "> 42.5"},
      {"smiles": "CCOc1ccc(NC(=O)COC(=O)Cc2ccsc2)cc1", "solubility kinetic": 25.1},
      {"smiles": "O=S(=O)(c1cc(Cl)ccc1Cl)N1CCN2CCCC2C1", "note": "(stereo not given)", "solubility kinetic": 47.5},
      {"smiles": "NC(=O)C1CCN(CC(=O)Nc2nccs2)CC1", "solubility kinetic": 38.4},
      {"smiles": "CC(=O)c1cccc(NC(=O)C(C)OC(=O)C2=NNC(=O)CC2)c1", "note": "(stereo not given)", "solubility kinetic": "> 49.7"},
      {"smiles": "CCOc1ccccc1NC(=O)C(c1ccccc1)N1CCN(CC(=O)N2CCCC2)CC1", "note": "(stereo not given)", "solubility kinetic": "> 67.6"},
      {"smiles": "O=C(Nc1ccccc1C(=O)Nc1ccccn1)c1cc(F)c(F)cc1Cl", "solubility kinetic": "< 0.3"},
      {"smiles": "Fc1cnc(Cl)nc1N1CCN(c2ccccc2)CC1", "solubility kinetic": 17.4},
      {"smiles": "NS(=O)(=O)c1ccc(S(=O)(=O)c2ccccc2)nc1", "solubility kinetic": "> 44.7"},
      {"smiles": "COC(=O)c1ccc(CN2CCN(CC(C)C)C(CCO)C2)cc1", "note": "(stereo not given)", "solubility kinetic": "> 50.2"},
      {"smiles": "Cc1cccc(NS(=O)(=O)c2csc(C(N)=O)c2)c1", "solubility kinetic": "> 44.5"},
      {"smiles": "CC(C)CCC(C)NC(=O)Cc1ccc(S(=O)(=O)N2CCOCC2)s1", "note": "(stereo not given)", "solubility kinetic": 47},
      {"smiles": "Cl.O=C(c1cc(-c2cccc3ccccc23)nc2ccccc12)N1CCN(CCO)CC1", "solubility kinetic": "> 67.2"},
      {"smiles": "O=C(/C=C/c1ccncc1)c1ccc2c(c1)OCCO2", "solubility kinetic": 26.9},
      {"smiles": "O=c1[nH]cccc1-c1nc2ccccc2[nH]1", "solubility kinetic": "> 31.7"},
      {"smiles": "S=C(NCC1CCCO1)N1CCc2ccccc2C1", "note": "(stereo not given)", "solubility kinetic": "> 41.5"},
      {"smiles": "Cc1c(C(=O)C(=O)N2CCN(C)CC2)c2ccccc2n1C", "solubility kinetic": "> 44.9"},
      {"smiles": "CN(C)c1nc(-c2cccs2)cc(C(F)(F)F)c1C#N", "solubility kinetic": 0.3},
      {"smiles": "C[C@@H](C(=O)Nc1nccs1)N1C(=O)C2CC=CCC2C1=O", "note": "(stereo not given in full)", "solubility kinetic": 42.8},
      {"smiles": "O=C(OCC(=O)N1CCCCCC1)c1ccc(Cl)nc1", "solubility kinetic": "> 44.5"},
      {"smiles": "CCOC(=O)Cc1cnc(NC(=O)CSc2nc(N)cc(=O)[nH]2)s1", "solubility kinetic": 12.6},
      {"smiles": "CCN(CC)S(=O)(=O)c1ccc(NC(=O)c2cnccn2)cc1", "solubility kinetic": 7.8},
      {"smiles": "COc1ccc(C(C)=O)cc1CN1CC=C(c2ccccc2)CC1", "solubility kinetic": 28.8},
      {"smiles": "CC(C)(C)C(=O)c1cn(Cc2ccccc2)c2ccccc12", "solubility kinetic": 1.5},
      {"smiles": "Cc1cccc(NC(=O)CN2CCSc3ccccc32)c1", "solubility kinetic": 5.2},
      {"smiles": "Cc1ccc(NC(=O)/C=C2\\NC(=O)CS2)cc1", "solubility kinetic": 4.1},
      {"smiles": "CC(Oc1ccccc1F)C(=O)NC1CCS(=O)(=O)C1", "note": "(stereo not given)", "solubility kinetic": "> 45.2"},
      {"smiles": "CC(C)CNC(=O)C(=O)Nc1cc2c3c(c1)C(C)C(=O)N3CCC2", "note": "(stereo not given)", "solubility kinetic": 42.7},
      {"smiles": "COc1ccccc1Nc1c2ccccc2nc2ccccc12", "solubility kinetic": 35.5},
      {"smiles": "O=C(CS(=O)(=O)c1ccccc1)NCc1ccco1", "solubility kinetic": 40.7},
      {"smiles": "CN(C)CCCNC(=O)c1cc(C(=O)c2ccccc2F)c[nH]1", "solubility kinetic": "> 47.6"},
      {"smiles": "Cc1nc2ccccc2c(=O)n1-c1ccc(Br)cn1", "solubility kinetic": "> 47.4"},
      {"smiles": "Cc1cc2cccc(C)c2nc1SCC(=O)NC1CCCCC1", "solubility kinetic": "< 0.4"},
      {"smiles": "CCn1cc(C(=O)N2CCOCC2)c2ccccc21", "solubility kinetic": "> 38.7"},
      {"smiles": "O=[N+]([O-])c1cccc(S(=O)(=O)N2CCCCC2)c1", "solubility kinetic": 37.5},
      {"smiles": "Cc1ccc(C(=O)CCC(=O)N2CCC(C(N)=O)CC2)cc1", "solubility kinetic": 43.5},
      {"smiles": "O=C(c1ccccc1)N1CCN(C(=O)C2CC2)CC1", "solubility kinetic": 38.2},
      {"smiles": "Cc1cc(C)nc(SCc2c(F)cccc2Cl)n1", "solubility kinetic": "< 0.3"},
      {"smiles": "O=C1CCCC2=C1C(c1ccncc1)n1c(nc3ccccc31)N2", "note": "(stereo not given)", "solubility kinetic": 6.7},
      {"smiles": "CC(C)(C)C(=O)NCCCNc1ccc([N+](=O)[O-])cc1", "solubility kinetic": 38.3},
      {"smiles": "COc1ccc(OS(=O)(=O)c2c(C)noc2C)cc1", "solubility kinetic": 29.3},
      {"smiles": "CCS(=O)(=O)N1CCC(C(=O)Nc2cc(C)ccc2O)CC1", "solubility kinetic": "> 49"}
    ]}
  ]
}
